Measurements from paper PMC6767236, “Selective Cannabinoid 2 Receptor Agonists as Potential Therapeutic Drugs for the Treatment of Endotoxin-Induced Uveitis” (Molecules, 2019).
Like-named read-outs stand apart in the source and are kept apart here. Marks after values point to notes of the source that are not given here.

Tests used:
human CB2R [1] = molecular target: T1, human CB2R (Homo sapiens, UniProt P34972); conditions: cited from earlier work; for EC50: read-out: hCB2R: cAMP EC50; for hCB1R cAMP EC50/hCB2R cAMP EC50: functional selectivity
T1 construct: bgal (beta-galactosidase fragment of the PathHunter system, named only in the cell line's name); host or cells: CHO-K1 (CHOK1hCB2_bgal)
T1 sequence (P34972 whole entry, the tested form may be a part): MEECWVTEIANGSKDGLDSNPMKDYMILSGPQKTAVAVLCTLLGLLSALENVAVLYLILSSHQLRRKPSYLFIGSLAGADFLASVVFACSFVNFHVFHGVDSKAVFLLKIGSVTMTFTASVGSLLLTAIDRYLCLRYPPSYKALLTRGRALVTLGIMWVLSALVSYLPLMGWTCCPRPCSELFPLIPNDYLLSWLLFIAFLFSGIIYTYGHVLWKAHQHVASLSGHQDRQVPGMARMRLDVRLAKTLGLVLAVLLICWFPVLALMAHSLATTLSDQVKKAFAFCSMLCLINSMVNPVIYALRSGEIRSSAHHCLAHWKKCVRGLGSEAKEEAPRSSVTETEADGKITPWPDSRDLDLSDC

[2] = cited from earlier work; for Hepatocyte Clearance mouse: mouse hepatocytes, * previously published; for clearance in mouse hepatocytes (class in words): underlying data previously published
mouse CB2R [3] = molecular target: T2, mouse CB2R (Mus musculus, UniProt P47936); assay: biochemical; assay type: binding; set-up: bgal (beta-galactosidase fragment of the PathHunter system, named only in the cell line's name); host or cells: CHO-K1 (CHOK1mCB2_bgal)
T2 sequence (P47936 whole entry, the tested form may be a part): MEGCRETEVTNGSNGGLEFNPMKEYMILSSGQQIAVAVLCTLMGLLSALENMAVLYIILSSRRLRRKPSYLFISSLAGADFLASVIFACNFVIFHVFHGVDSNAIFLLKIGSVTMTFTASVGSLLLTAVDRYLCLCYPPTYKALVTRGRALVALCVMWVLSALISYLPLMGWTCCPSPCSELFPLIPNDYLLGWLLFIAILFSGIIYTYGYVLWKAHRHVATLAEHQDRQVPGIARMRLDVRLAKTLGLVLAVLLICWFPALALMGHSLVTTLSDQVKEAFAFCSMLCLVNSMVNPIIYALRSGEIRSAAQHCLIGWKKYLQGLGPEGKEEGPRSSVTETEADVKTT
Description: Membrane fractions were prepared from cultured CHOK1hCB1_bgal, CHOK1hCB2_bgal, and CHOK1mCB2_bgal cells (DiscoveRx, Fremont, CA, USA) as previously described. Protein concentration was determined using the Pierce bicinchoninic acid (BCA) protein assay (Rochford, IL, USA) as per the manufacturer’s instructions.
Radio ligand-binding assays were carried out as described by Souethoudt et al. (2018). Briefly, membranes from cells expressing human CB2R or CB1R or mouse CB2R and the radioligand, [^3H]-CP55940 (Perkin Elmer, Basel, Switzerland) was used. […] Membrane aliquots containing 5 µg (CHOK1hCB1_bgal) or 1 µg (CHOK1hCB2_bgal) of membrane protein in 100 µL assay buffer (50 mMTris-HCl, 5 mM MgCl2, 0.1% bovine serum albumin (BSA), pH 7.4) were incubated at 30 °C for 1 h, in presence of 3.5 nM of [^3H]-CP55940 (CHOK1hCB1_bgal) or 1.5 nM [^3H]-CP55940 (CHOK1hCB2_bgal). The incubation was terminated by rapid filtration performed on glass microfibre (GF/C) filters (Whatman International, Maidstone, UK), presoaked for 30 min with 0.25% polyethyleneimine (PEI), and using a Brandel harvester (Brandel, Gaithersburg, MD, USA). Filter-bound radioactivity was determined by scintillation spectrometry using a Tri-Carb 2900 TR liquid scintillation counter (Perkin Elmer, Boston, MA, USA). For mouse experiments, spleens were collected as previously described and resuspended in 2 mM Tris-EDTA, 320 mM sucrose, 5 mM MgCl2 (pH 7.4). Tissue was homogenized with a Potter homogenizer and centrifuged three times at 1000× g (10 min). The supernatants were centrifuged at 18,000× g (30 min), and the pellets were resuspended in assay buffer (50 mM Tris-HCl, 2 mM Tris-EDTA, 3 mM MgCl2, pH 7.4). These membrane fractions were used in rapid filtration assays with 400 pM of [^3H]-CP55,940. In all receptor binding experiments, nonspecific binding was determined in the presence of 1 µM “cold” agonist.

[4] = cited from earlier work; for PAMPA Peff: * at end of cell: previously published; for PAMPA %Acceptor / PAMPA %Donor / PAMPA %Membrane: * previously published
mouse CB2R [5] = molecular target: T2, mouse CB2R; assay: cell-based; assay type: cell-based; set-up: bgal (beta-galactosidase fragment of the PathHunter system, named only in the cell line's name); host or cells: CHO-K1 (CHOK1mCB2_bgal)
Description: (§1) Assays were carried out using the PathHunter hCB1_bgal, hCB2_bgal, or mCB2_bgal CHOK1 β-arrestin recruitment assay kit (DiscoveRx, Fremont, CA, USA) as previously described. A total of 5000 cells per well were seeded in 384-well plates (Perkin Elmer, MA, USA) containing 20 μL cell culture medium and incubated for 16–18 h at 37 °C and 5% CO2. Cells were stimulated with 10 μM of each agonist or 11 increasing concentrations and incubated for 90 min at 37 °C and 5% CO2. […] The cells were incubated for 90 min at 37 °C and 5% CO2. Compounds in DMSO stock solutions were added using a HP D300 Digital Dispenser (Tecan, Mannedorf, Switzerland). The final concentration of organic solvent per assay point was ≤ 0.1%. The PathHunter Detection mixture was used, according to the manufacturer’s protocol, to determine the β-galactosidase enzyme activity. Detection mixture, 12 μL per well, was added and the plate was incubated for 1 h in the dark at room temperature. Chemiluminescence, indicated as relative light unit, was measured on an EnVision multilabel plate reader (Perkin Elmer, MA, USA).

[6] = * previously published; cited from earlier work
human CB2R [7] = molecular target: T1, human CB2R; assay: PathHunter β-arrestin recruitment assay, hCB2R; assay type: cell-based; conditions: for EC50: read-out: hCB2R: beta arrestin EC50
Description: as §1

[8] = relative to 1 µM CP55940, * previously published
[9] = underlying data previously published
[10] = [3H]-CP55940 displacement, read-out: mouse CB2R: Ki
[11] = read-out: mouse CB2R: beta arrestin EC50
[12] = species ratio of binding affinity

Row | Compound | hCB2R: cAMP efficacy (human CB2R [1]; [8]) [%] | functional behaviour in hCB2R cAMP assay (human CB2R [1]; [9]) | Hepatocyte Clearance mouse [2] [μL/min/Mio cells] | PAMPA Peff [4] | PAMPA %Acceptor [4] [%] | PAMPA %Donor [4] [%] | PAMPA %Membrane [4] [%] | mouse CB2R: beta arrestin efficacy (mouse CB2R [5]) [%] | Plasma Protein Binding: FREE Fraction human [6] [%] | hCB1R beta arrestin EC50/hCB2R beta arrestin EC50 (human CB2R [7]) | Ki (mouse CB2R [3]; [10]) [nM] | EC50 (mouse CB2R [5]; [11]) [nM] | EC50 (human CB2R [1]; * previously published) [nM] | hCB1R cAMP EC50/hCB2R cAMP EC50 (human CB2R [1]; * previously published) | functional behaviour in hCB2R β-arrestin assay (human CB2R [7]) | hCB2R: beta arrestin efficacy (human CB2R [7]) [%] | EC50 (human CB2R [7]) [nM] | hCB2R Ki/mouse CB2R Ki (mouse CB2R [3]; [12]) | activity in mouse CB2R β-arrestin assay (mouse CB2R [5]) | clearance in mouse hepatocytes (class in words) [2] | further results
1 | CCCCCCC(C)(C)c1cc(OC)c([C@H]2C=C(CO)[C@H]3C[C@@H]2C3(C)C)c(OC)c1 [HU308, {(1S,4S,5S)-4-[2,6-Dimethoxy-4-(2-methyloctan-2-yl)phenyl]-6,6-dimethylbicyclo[3.1.1]hept-2-en-2-yl}methanol, reference compound] | 98 | full agonists | 4.7 | 2.53 10*-6 cm/s | 3 | 23 | 74 | 76 | – | – | – | – | – | – | – | – | – | – | – | – | Ki (mouse CB2R [3]): 223 nM; EC50 (mouse CB2R [5]): 592 nM
2 | CCCCCCC(C)(C)c1cc(OC)c(C2=C[C@H]3CC[C@]2(CO)C3(C)C)c(OC)c1 [HU910, {(1S,4R)-2-[2,6-dimethoxy-4-(2-methyloctan-2-yl)phenyl]-7,7-dimethylbicyclo[2.2.1]hept-2-en-1-yl}methanol, reference compound] | – | – | 34 | 0.45 10*-6 cm/s | 1 | 42 | 57 | 54 | 1.8 | >275 | 276 | 224 | – | – | – | – | – | – | – | – | functional behaviour in hCB2R cAMP assay (human CB2R [1]): full agonists; hCB2R: cAMP efficacy (human CB2R [1]): 4, 98 * %; EC50 (human CB2R [1]): 4 nM; hCB2R Ki/mouse CB2R Ki (mouse CB2R [3]): 0.2; hCB2R β-arrestin EC50/mouse CB2R β-arrestin EC50 (mouse CB2R [5]): 0.5
3 | CNC(=O)[C@@H](NC(=O)c1cc(OCC2(C)COC2)c(C2CC2)cn1)C(C)(C)C [RO6851228, 5-Cyclopropyl-N-[(2S)-3,3-dimethyl-1-(methylamino)-1-oxobutan-2-yl]-4-[(3-methyloxetan-3-yl)methoxy]pyridine-2-carboxamide] | −159 | inverse agonist | 46 | 5.17 10*-6 cm/s | 19 | 79 | 3 | – | 9.6 | – | – | > 30000 | 26 | >383 * | inverse agonist | −18 | 3 | 45 | not active | – | –
4 | Cc1nc([C@](C)(CC2CC2)NC(=O)c2cc(OCC(F)(F)F)c(C3CC3)cn2)no1 [RO6871085, 5-Cyclopropyl-N-[(2S)-1-cyclopropyl-2-(5-methyl-1,2,4-oxadiazol-3-yl)propan-2-yl]-4-(2,2,2-trifluoroethoxy)pyridine-2-carboxamide] | 88 | full agonists | 27 | 2.44 10*-6 cm/s | 2 | 20 | 78 | – | 1.0 | >545 | – | > 30000 | 8 | 174 * | partial agonist | 51 | 55 | 13 | not active | medium | –
5 | CC(C)(C)c1nc(N2CC[C@H](O)C2)c2nnn(Cc3nnnn3C3CC3)c2n1 [RO6871304, (3S)-1-{5-tert-butyl-3-[(1-cyclopropyl-1H-tetrazol-5-yl)methyl]-3H-[1,2, 3]triazolo[4,5-d]pyrimidin-7-yl}pyrrolidin-3-ol] | 102 | full agonists | 140 | 3.06 10*-6 cm/s | 8 | 62 | 30 | 94 | – | >1429 | 34 | 26 | 1 | – | – | – | – | 0.5 | – | high | –
